Source: patent US9028855B2, “Plant additives and uses thereof to modulate the synthesis of membrane glycerolipids in planta” (Commissariat a l'Energie Atomique et aux Energies …, priority 2009, dated 2015)
“Also recorded” adds a separate entry of the source.

How the values were obtained:
phopholipase Dz2 = assay: PLDz::GUS, follow-up of the expression of the gene encoding phospholipase Dz2 (GUS staining); type: in vivo, A. thaliana; details: summary over PLDz::GUS and MGD3::GUS; specific = without impact on growth or PHT1;4
Protocol: pPLDZ2:GUS-GFP cell line is as described by Cruz-Ramirez et al. (Cruz-Ramirez et al., 2006), and expressed a GUS-GFP fusion under the control of the pldz2 promoter. […] Plants were examined for GUS activity by dipping the samples in a GUS staining solution (50 mM sodium phosphate buffer pH 7.0; 0.01% Triton X-100, 1 mM K3Fe(CN)6, 1 mM K4Fe(CN)6, 1 mg/ml 5-dromo-4-chloro-3-indolyl (3-D-GLUCURONIDE (X-Gluc A) and incubated at 37° C. over-night. After staining, the plants were fixed 2 hours in 50 mM sodium phosphate buffer pH 7.0; 1% glutaraldehyde; 4% formaldehyde. In response to phosphate starvation, the lipid metabolism is modified (Benning and Ohta, 2005). Plants preferentially synthesize sulpho- and galacto-lipids instead of phospholipids. Several enzymes are involved in this remobilisation.

wild type seedlings = assay: Anthocyanins content (spectrophotometric); type: in vivo, A. thaliana; set-up: key to Antho: anthocyanin content as A530 - 2.2*A652; details: accumulation of anthocyanes; +P control 46, −P 1008
Protocol: Anthocyanins were extracted with propanol:HCl:H2O (81:1:18) for 5 min at room temperature and 3 min at 100° C. Samples are centrifuged for 10 min at 4° C. Supernatants were collected and absorption measured at 530 nm and […]. Anthocyanin content was calculated as A530-2.2A652 (Lange et al., 1971).

A. thaliana = assay: Root growth (primary root) of plants on high phosphate medium supplied with compound; type: in vivo; details: expressed as a percentage having regard to a control; +P control 100, −P 20
Source text: In response to phosphate starvation, the primary root growth is inhibited (Svistoonoff et al., 2007).

Row | Structure (SMILES) | lipid metabolism: induction of PLDζ2 and/or MGD3 genes (in words) (phopholipase Dz2) | Antho (wild type seedlings) | Root Growth (A. thaliana)
1 | COc1cccc(NC=C2C(=O)CCCC2=O)c1 [#41] | impact specifically the lipid metabolism inducing PLD[…]2 and MGD3; also recorded: specificity in lipids remodeling | 111 | 65 % of control
2 | COc1ccc(NC=C2C(=O)CCCC2=O)cc1 [#46] | specificity in lipids remodeling | 167 | 70 % of control
3 | CC1(C)CC(=O)C(=CNc2ccc(N)cc2)C(=O)C1 [#42] | impact specifically the lipid metabolism inducing PLD[…]2 and MGD3; also recorded: specificity in lipids remodeling | 226 | 68 % of control
4 | CC(Nc1ccc(Br)cc1)=C1C(=O)CC(C)(C)CC1=O [#21] | impact specifically the lipid metabolism inducing PLD[…]2 and MGD3 | 146 | 93 % of control
5 | CC1CC(=O)C(=CNc2ccccc2)C(=O)C1 (stereo not drawn) [#29] | impact specifically the lipid metabolism inducing PLD[…]2 and MGD3; also recorded: specificity in lipids remodeling | 146 | 85 % of control
